Test results as given in patent US20240209456A1, “METHODS AND COMPOSITIONS RELATED TO CELL-CYCLE RNA's” (BETH ISRAEL DEACONESS MEDICAL CENTER, priority 2021, published 2024).
Entries after “also recorded” stand apart in the source; their conditions may differ.

Columns and labels:
acH2A.Z = assay: nascent ChIP-qPCR (nasChIP) with acH2A.Z antibody; format: cell-based, human; conditions: for restoration of acH2A.Z at c-MYC locus after DRB reversal: HL-60, 2 hrs after DRB wash-out, MG149 200 μM, TH1834 500 μM; for restoration of acH2A.Z enrichment at PU1 locus after DRB reversal: HL-60, MG149 and TH1834 treatments
Protocol: (§1) To confirm the results of the ChIP-Seq, and to track the deposition of the H2A.Z, acH2A.Z nascent chromatin immunoprecipitation (nasChIP-PCR) was performed with the antibodies to H2A.Z, acH2A.Z and TIP60, as nasChIP-PCR can be used to track histone deposition. Cells were synchronized with a double thymidine block, released into S Phase and treated with DRB for 2 hrs. The medium was supplemented with the EdU DNA analog to enable collection of nascent chromatin DNA (FIG. 4A). […] The results of these experiments provide an important link between the suppressed c-MYC SPEARs expression and the reduced levels of the replacement histone H2A.Z, as an even greater degree of the loss of the acetylated acH2A.Z forms at the TSS of the c-MYC locus. Similar results were obtained for another gene locus, PU1 (FIG. 4F, right panels).
(§2) Cells were synchronized with a double thymidine block and released into S Phase with DMSO/DRB added. After 2 hours (during which H2A.Z levels remained unaffected, but SPEARs and mRNA levels drop, see FIG. 10A), cells were washed and then incubated for a further 2 hours with or without the TIP60 inhibitors. This interval is sufficient for the levels of both the c-MYC mRNAs and its SPEARs to be restored when the TIP60 inhibitors are absent (results shown in FIG. 11B). The medium was supplemented with the EU RNA and EdU DNA analogs to enable collection of nascent RNAs and newly formed chromatin that had escaped the drug-induced inhibition of transcription or acetylation. After 2 hours with the TIP60 inhibitors present (MG-149 at 200 μM and TH1834 at 500 μM), during which the levels of acH2A.Z dropped (see FIG. 11A), cells were crosslinked and subjected to nasChIP and nascent RNA expression analyses (nas-qRT-PCR) (FIG. 6B). Collected RNAs were biotinylated by click chemistry, isolated on streptavidin beads and analyzed by nas-qRT-PCR (see “Methods” below for details; FIG. 8A; bottom panel).
(§3) To further confirm that SPEARs realize their c-MYC regulatory function directly through the TIP60/acH2A.Z pathway, the differences in chromatin occupancy of H2A.Z, acH2A.Z and TIP60 were assessed after inhibition of transcription (“DRB”), reversal of inhibition (“DRB REV”) and reversal of inhibition in the presence of the two TIP60 inhibitors, using nasChIP-qPCR. […] By analyzing the nascent RNAs and chromatin, only the immediate changes in c-MYC expression and TIP60, acH2A.Z and H2A.Z occupancy were examined within the locus as imposed by the inhibition of transcription and/or acetylation. […] When the two HAT inhibitors are present, the reversal of transcriptional inhibition can only restore the enrichment levels of the unmodified H2A.Z and TIP60 (FIG. 6D; left and right panels), but not the levels of acH2A.Z (middle panel). […] Furthermore, no enrichments of H2A.Z, acH2A.Z or TIP60 was detected within the Gene Desert locus (FIG. 11C). […] Similar results were obtained for the PU.1 locus (FIG. 11D and FIG. 11E). These findings using nasChIP are in line with the general trend obtained globally by ChIP-Seq. (FIG. 4C).
(§4) Nascent RNA/DNA capture was performed using Click-iT Nascent RNA Capture Kit (ThermoFisher) according to the manufacturer's instructions with minor modifications. Briefly, 1. Labeling the cells with EU/EdU. 200 mM EU or 30 mM EdU stock solutions were added to the cells, to a final concentration 0.5 mM or 30 μM, respectively. 2. Incubation. The cells were incubated for 1 or 2 hours. 3. RNA/DNA isolation. The cells were harvested and the RNA/DNA were isolated and dissolved in 14 μL of H2O. 4. Biotinylation of RNA/DNA by Click reaction. Click-iT reaction cocktail (50 μL per reaction) was prepared accordingly to manufacturer's instructions: a mixture containing 1× Click-iT EU buffer; 2 mM CuSO4; 1 mM Biotin azide; 13.25 μL of the isolated RNA; 10 mM Click-iT reaction buffer additive 1; 12 mM Click-iT reaction buffer additive 2 was prepared. After adding each component, the reaction cocktail was gently mixed by vortexing. […]

H2A.Z = assay: nascent ChIP-qPCR (nasChIP) with H2A.Z antibody; format: cell-based, human; conditions: for restoration of H2A.Z distribution at c-MYC locus after DRB reversal: HL-60, 2 hrs after DRB wash-out, MG149 200 μM, TH1834 500 μM
Protocol: as §1
Cells were synchronized with a double thymidine block and released into S Phase with DMSO/DRB added. After 2 hours (during which H2A.Z levels remained unaffected, but SPEARs and mRNA levels drop, see FIG. 10A), cells were washed and then incubated for a further 2 hours with or without the TIP60 inhibitors. This interval is sufficient for the levels of both the c-MYC mRNAs and its SPEARs to be restored when the TIP60 inhibitors are absent (results shown in FIG. 11B). […] Collected RNAs were biotinylated by click chemistry, isolated on streptavidin beads and analyzed by nas-qRT-PCR (see “Methods” below for details; FIG. 8A; bottom panel).
To further confirm that SPEARs realize their c-MYC regulatory function directly through the TIP60/acH2A.Z pathway, the differences in chromatin occupancy of H2A.Z, acH2A.Z and TIP60 were assessed after inhibition of transcription (“DRB”), reversal of inhibition (“DRB REV”) and reversal of inhibition in the presence of the two TIP60 inhibitors, using nasChIP-qPCR. […] Furthermore, no enrichments of H2A.Z, acH2A.Z or TIP60 was detected within the Gene Desert locus (FIG. 11C). […]

TIP60 = TIP60 (Homo sapiens, UniProt Q92993); assay: nascent ChIP-qPCR (nasChIP) with TIP60 antibody; format: cell-based; design: endogenous in cells; host or cells: HL-60; conditions: for restoration of TIP60 at c-MYC locus after DRB reversal: HL-60, 2 hrs after DRB wash-out, MG149 200 μM, TH1834 500 μM; for restoration of TIP60 enrichment at PU1 locus after DRB reversal: HL-60, MG149 and TH1834 treatments
Sequence of TIP60 (Q92993 whole entry): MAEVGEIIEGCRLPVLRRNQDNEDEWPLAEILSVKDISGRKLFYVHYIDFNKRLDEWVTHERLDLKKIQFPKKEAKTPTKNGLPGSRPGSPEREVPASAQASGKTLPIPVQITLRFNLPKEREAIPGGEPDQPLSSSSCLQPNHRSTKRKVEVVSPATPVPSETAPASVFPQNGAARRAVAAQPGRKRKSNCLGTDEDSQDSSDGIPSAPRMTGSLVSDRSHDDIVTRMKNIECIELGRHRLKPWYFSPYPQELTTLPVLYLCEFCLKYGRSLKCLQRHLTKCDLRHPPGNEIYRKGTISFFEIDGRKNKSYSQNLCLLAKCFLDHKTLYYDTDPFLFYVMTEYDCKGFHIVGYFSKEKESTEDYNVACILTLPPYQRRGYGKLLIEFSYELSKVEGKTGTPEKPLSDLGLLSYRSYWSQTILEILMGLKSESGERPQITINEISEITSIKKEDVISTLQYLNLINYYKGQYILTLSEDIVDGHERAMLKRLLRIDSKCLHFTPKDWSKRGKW
Protocol: as §1, §2, §3, §4

[1] = HL-60 released into S Phase, DRB 2 hrs

Structure (SMILES)	restoration of acH2A.Z at c-MYC locus after DRB reversal (acH2A.Z)	restoration of acH2A.Z enrichment at PU1 locus after DRB reversal (acH2A.Z)	restoration of H2A.Z distribution at c-MYC locus after DRB reversal (H2A.Z)	restoration of TIP60 at c-MYC locus after DRB reversal (TIP60)	restoration of TIP60 enrichment at PU1 locus after DRB reversal (TIP60)	acH2A.Z enrichment at PU1 locus (acH2A.Z; HL-60, DRB treatment)	acH2A.Z enrichment at c-MYC locus (acH2A.Z; [1])	H2A.Z enrichment at c-MYC locus (H2A.Z; [1])	TIP60 enrichment at PU1 locus (TIP60; HL-60, DRB treatment)	TIP60 enrichment at c-MYC locus (TIP60; [1])
CCCCCCCc1ccc(CCc2cccc(O)c2C(=O)O)cc1 [MG149]	prevents the restoration	preventing the restoration	only slightly affecting	only slightly affecting	without affecting					
O=C(O)Cn1nnc(-c2ccc(CN(CCCCOc3ccc(CN4CCCC4)cc3)CCc3ccccc3)cc2)n1 [TH1834]	prevents the restoration	preventing the restoration	only slightly affecting	only slightly affecting	without affecting					
OC[C@H]1O[C@@H](n2cnc3cc(Cl)c(Cl)cc32)[C@H](O)[C@@H]1O [DRB, 5,6-Dichlorobenzimidazole 1-β-D-ribofuranoside]						loss	diminished enrichment and loss	diminished enrichment; also recorded: partial loss	loss	diminished enrichment and loss
